For orientation: IC50 means the concentration at which inhibition is half-maximal. A high value points to a need for much substance.

From US7034016B2, “8-phenyl-6,9-dihydro-[1,2,4]triazolo[3,4-i]purin-5-one derivatives” (Almirall Prodesfarma, S.A., priority 1999, dated 2006) come the findings set out here.

This assay addresses T1, cyclic GMP specific phosphodiesterase (PDE 5) (Homo sapiens, UniProt O76074).
T1 construct: isolated from human platelet lysates by ion exchange chromatography using a Mono-Q column; from tissue; host or cells: human platelets (lysate, Mono-Q ion exchange fraction)
Put plainly: PDE 5 inhibitory activity (enzyme isolated from human platelet lysates, [3H]-cyclic GMP substrate). Type of assay: biochemical. Particulars: PDE 5 from human platelet lysates; 0.25 mM [3H]-cyclic GMP as substrate. On the procedure: The cyclic GMP specific phosphodiesterase (PDE 5) was isolated from human platelet lysates by ion exchange chromatography using a Mono-Q column. The enzyme activity was determined using 0.25 mM [3H]-cyclic GMP as substrate. The purification of the enzyme and the assessment of the PDE 5 inhibitory activity of our compounds were performed essentially as described by Gristwood et al., Br. J. Pharmacol. 1992, 105, 985–991.
In turn, “8-[5-(4-Methyl-[1,4]diazepane-1-sulfonyl)-2-propoxyphenyl]-6-propyl-6,9-dihydro-[1,2,4]triazolo[3,4-i]purin,5-one [Example 22]” displayed a concentration for half-maximal inhibition (IC50) of 3.7 nM.

Take `CCCOc1ccc(S(=O)(=O)N2CCN(C)CC2)cc1-c1nc2c([nH]1)c1nncn1c(=O)n2CC` [Example 4, 6-Ethyl-8-[5-(4-methylpiperazine-1-sulphonyl)-2-propoxyphenyl]-6,9-dihydro-[1,2,4]triazolo[3,4-i]purin-5-one]: it took 11 nM to reach half-maximal inhibition (IC50).

Regarding `CCCCOc1ccc(S(=O)(=O)N2CCN(C)CC2)cc1-c1nc2c([nH]1)c1nncn1c(=O)n2CC` [Example 6], the IC50 is 13 nM.

Compound `CCCOc1ccc(S(=O)(=O)Nc2ccncc2)cc1-c1nc2c([nH]1)c1nncn1c(=O)n2CCC` [Example 17, 3-(5-Oxo-6-propyl-6,9-dihydro-5H-[1,2,4]triazolo[3,4-i]purin-8-yl)-4-propoxy-N-pyridin-4-yl-benzenesulphonamide] returned an IC50 of 1.5 nM.

Regarding `CCCOc1ccc(S(=O)(=O)N2CCN(C)CC2)cc1-c1nc2c([nH]1)c1nncn1c(=O)n2CCC` [Example 18, 8-[5-(4-Methylpiperazinosulphonyl)-2-propoxyphenyl]-6-propyl-6,9-dihydro-[1,2,4]triazolo[3,4-i]purin-5-one], the concentration for half-maximal inhibition (IC50) amounted to 14 nM.

In turn, `CCCOc1ccc(S(=O)(=O)N2CCN(CCO)CC2)cc1-c1nc2c([nH]1)c1nncn1c(=O)n2CCC` [Example 27, 8-{5-[4-(2-Hydroxyethyl)piperazine-1-sulphonyl]-2-propoxyphenyl}-6-propyl-6,9-dihydro-[1,2,4]triazolo[3,4-i]purin-5-one] returned an IC50 of 4 nM.

In turn, `CCCCn1c(=O)n2cnnc2c2[nH]c(-c3cc(S(=O)(=O)N4CCN(CCO)CC4)ccc3OCCC)nc21` [Example 43, 6-Butyl-8-(2-propoxy-5-[4-(2-hydroxyethyl)piperazine-1-sulphonyl]phenyl}-6,9-dihydro[1,2,4]triazolo[3,4-i]purin-5-one] gave a half-maximal inhibitory concentration (IC50) of 4 nM.

Consider `CCCOc1ccc(S(=O)(=O)N2CCN[C@@H](C)C2)cc1-c1nc2c([nH]1)c1nncn1c(=O)n2CCC` [Example 86, 8-[5-((S)-3-Methylpiperazine-1-sulfonyl)-2-propoxyphenyl]-6-propyl-6,9-dihydro-[1,2,4]triazolo[3,4-i]purin-5-one], for which the midpoint of inhibition, the IC50, lay at 1.4 nM.

As for `CCCOc1ccc(S(=O)(=O)N2C[C@@H]3C[C@H]2CN3C)cc1-c1nc2c([nH]1)c1nncn1c(=O)n2CCC` [Example 89, 8-[5-((1S,4S)-5-Methyl-2,5-diazabicyclo[2.2.1]heptane-2-sulfonyl)-2-propoxyphenyl]-6-propyl-6,9-dihydro-[1,2,4]triazolo[3,4-i]purin-5-one], the IC50 is 0.51 nM.

As to `CCCOc1ccc(S(=O)(=O)N2CC(CN(C)C)C2)cc1-c1nc2c([nH]1)c1nncn1c(=O)n2CCC` [Example 91, 8-[5-(3-Dimethylaminomethylazetidine-1-sulfonyl)-2-propoxyphenyl]-6-propyl-6,9-dihydro-[1,2,4]triazolo[3,4-i]purin-5-one], it took 0.97 nM to reach half-maximal inhibition (IC50).

Regarding `CCCOc1ccc(S(=O)(=O)N2C[C@@H](C)N[C@@H](C)C2)cc1-c1nc2c([nH]1)c1nncn1c(=O)n2CCC` [Example 93, 8-[5-((3R,5S)-3,5-Dimethylpiperazine-1-sulfonyl)-2-propoxyphenyl]-6-propyl-6,9-dihydro-[1,2,4]triazolo[3,4-i]purin-5-one], 0.85 nM corresponded to half-maximal inhibition (IC50).

The compound `CCCOc1ccc(S(=O)(=O)N2CCCN(CCO)CC2)cc1-c1nc2c([nH]1)c1nncn1c(=O)n2CCC` [Example 105, 8-{5-[4-(2-Hydroxyethyl)-[1,4]diazepane-1-sulfonyl]-2-propoxyphenyl}-6-propyl-6,9-dihydro-[1,2,4]triazolo[3,4-i]purin-5-one] registered an IC50 of 0.34 nM. Compared with the last compound, the IC50 is about 2.5-fold lower.

In turn, `CCCOc1ccc(S(=O)(=O)N2CCN(C(C)(C)CO)CC2)cc1-c1nc2c([nH]1)c1nncn1c(=O)n2CCC` [Example 108, 8-{5-[4-(2-Hydroxy-1,1-dimethylethyl)piperazine-1-sulfonyl]-2-propoxyphenyl}-6-propyl-6,9-dihydro-[1,2,4]triazolo[3,4-i]purin-5-one] displayed an IC50 of 1.6 nM.

In turn, `CCCCn1c(=O)n2cnnc2c2[nH]c(-c3cc(S(=O)(=O)N4CCN(C(C)(C)CO)CC4)ccc3OCCC)nc21` [Example 138, 6-Butyl-8-{5-[4-(2-hydroxy-1,1-dimethylethyl)piperazine-1-sulfonyl]-2-propoxyphenyl}-6,9-dihydro-[1,2,4]triazolo[3,4-i]purin-5-one] returned an IC50 of 0.84 nM. This IC50 lies about 1.9-fold lower than the previous one.

As for “N-(3-Dimethylamino-2,2-dimethylpropyl)-3-(oxopropyl-6,9-dihydro-5H-[1,2,4]triazolo[3,4-i]purin-8-yl)-4-propoxybenzenesulfonamide [Example 101]”, half-maximal inhibition (IC50) was put at 0.54 nM. This IC50 lies about 1.6-fold lower than the previous one.
